# Reference: US20220242870A1, “HETEROCYCLE-FUSED PYRIMIDINE DERIVATIVE AND USE THEREOF” (VORONOI Inc., priority 2019, published 2022)
# How the values were obtained:
# Test in all cases: scanMAX kinase assay panel
# Format in all cases: binding
# TRKB = biological target: T1, TRKB (Homo sapiens, UniProt Q16620); conditions: read-out: control percentage (% control)
# T1 construct: purchased DiscoverX
# Experimental: (§1) The activities of the compounds according to the present invention to more diverse enzymes were evaluated. Specifically, it was decided that the enzyme selectivity of Example 74 selected from the compounds of Examples 1 to 129 was measured at the request of DiscoverX, and the experiment was conducted using a scanMAX™ kinase assay panel. At this time, as a drug to treat the enzyme, a solution prepared by dissolving in DMSO at a concentration of 1 μM was used, and the control percentage (% control) was determined by the method of Equation 1 below, and the results were shown in Table 2 below.
# (§2) In Equation above, the positive control and negative control mean compounds showing control percentages of 0% and 100% as DMSO, respectively.
# MAP4K2 = biological target: T2, MAP4K2 (Homo sapiens, UniProt Q12851); conditions: read-out: control percentage (% control)
# T2 construct: purchased DiscoverX scanMAX kinase assay panel
# Experimental: as §1, §2
# FLT3(ITD, D835V) = conditions: 1 μM
# Experimental: as §1, §2
# ROCK1 = biological target: T3, ROCK1 (Homo sapiens, UniProt Q13464); conditions: read-out: control percentage (% control)
# T3 construct: purchased DiscoverX scanMAX kinase assay panel
# Experimental: as §1, §2
# CSNK1G2 = biological target: T4, CSNK1G2 (Homo sapiens, UniProt P78368); conditions: read-out: control percentage (% control)
# T4 construct: purchased DiscoverX (scanMAX panel, contract assay)
# Experimental: as §1, §2
# RET = biological target: T5, RET (Homo sapiens, UniProt P07949); conditions: read-out: control percentage (% control)
# T5 construct: purchased DiscoverX scanMAX kinase assay panel
# T5 sequence (P07949 29-1114): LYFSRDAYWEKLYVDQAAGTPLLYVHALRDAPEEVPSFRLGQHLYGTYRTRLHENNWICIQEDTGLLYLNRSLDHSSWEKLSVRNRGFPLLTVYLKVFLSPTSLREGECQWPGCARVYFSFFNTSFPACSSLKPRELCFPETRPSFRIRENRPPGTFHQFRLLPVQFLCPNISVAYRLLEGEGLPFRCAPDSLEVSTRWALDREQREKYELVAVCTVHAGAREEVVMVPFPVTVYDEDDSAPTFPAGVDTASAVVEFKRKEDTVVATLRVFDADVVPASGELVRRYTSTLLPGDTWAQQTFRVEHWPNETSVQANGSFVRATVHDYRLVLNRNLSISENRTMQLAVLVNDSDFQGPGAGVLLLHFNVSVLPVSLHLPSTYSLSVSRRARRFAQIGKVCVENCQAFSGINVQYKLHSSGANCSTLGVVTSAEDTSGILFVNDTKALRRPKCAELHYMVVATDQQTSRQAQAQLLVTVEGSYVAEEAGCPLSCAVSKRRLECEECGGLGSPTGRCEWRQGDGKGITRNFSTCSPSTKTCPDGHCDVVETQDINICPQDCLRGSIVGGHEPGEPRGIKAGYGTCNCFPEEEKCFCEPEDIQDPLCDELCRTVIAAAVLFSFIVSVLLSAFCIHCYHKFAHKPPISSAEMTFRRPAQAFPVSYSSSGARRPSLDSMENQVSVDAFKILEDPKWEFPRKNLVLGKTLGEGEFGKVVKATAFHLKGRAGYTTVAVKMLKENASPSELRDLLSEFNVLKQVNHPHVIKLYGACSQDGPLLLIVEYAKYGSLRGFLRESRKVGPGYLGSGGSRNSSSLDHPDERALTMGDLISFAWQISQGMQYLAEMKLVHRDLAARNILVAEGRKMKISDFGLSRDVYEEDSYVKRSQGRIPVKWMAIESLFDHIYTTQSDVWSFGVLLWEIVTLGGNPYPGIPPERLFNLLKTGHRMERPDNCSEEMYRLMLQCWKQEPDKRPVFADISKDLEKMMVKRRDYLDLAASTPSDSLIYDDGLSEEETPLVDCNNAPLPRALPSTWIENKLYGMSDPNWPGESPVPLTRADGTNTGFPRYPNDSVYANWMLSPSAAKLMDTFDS
# Experimental: as §1, §2
# ULK2 = biological target: T6, ULK2 (Homo sapiens, UniProt Q8IYT8); conditions: read-out: control percentage (% control)
# T6 construct: purchased DiscoverX
# Experimental: as §1, §2
# FLT3(D835H) = biological target: T7, FLT3(D835H) (Homo sapiens, UniProt P36888, D835H); conditions: read-out: control percentage (% control)
# T7 construct: purchased DiscoverX scanMAX kinase assay panel
# Experimental: as §1, §2
# INSR = biological target: T8, INSR (Homo sapiens, UniProt P06213); conditions: read-out: control percentage (% control)
# T8 construct: purchased DiscoverX scanMAX kinase assay panel
# Experimental: as §1, §2
# CDK4 = biological target: T9, CDK4 (Homo sapiens, UniProt P11802); conditions: read-out: control percentage (% control)
# T9 construct: purchased DiscoverX (scanMAX panel, contract assay)
# Experimental: as §1, §2
# MEK1 = biological target: T10, MEK1 (Homo sapiens, UniProt Q02750); conditions: read-out: control percentage (% control)
# T10 construct: purchased DiscoverX scanMAX kinase assay panel
# Experimental: as §1, §2
# CDK7 = biological target: T11, CDK7 (Homo sapiens, UniProt P50613); conditions: read-out: control percentage (% control)
# T11 construct: purchased DiscoverX (scanMAX panel, contract assay)
# Experimental: as §1, §2
# FLT3(ITD) = conditions: 1 μM
# Experimental: as §1, §2
# LRRK2(G2019S) = biological target: T12, LRRK2(G2019S) (Homo sapiens, UniProt Q5S007, G2019S); conditions: read-out: control percentage (% control)
# T12 construct: purchased DiscoverX scanMAX kinase assay panel
# Experimental: as §1, §2
# AXL = biological target: T13, AXL (Homo sapiens, UniProt P30530); conditions: read-out: control percentage (% control)
# T13 construct: purchased DiscoverX (scanMAX panel, contract assay)
# Experimental: as §1, §2
# CLK1 = biological target: T14, CLK1 (Homo sapiens, UniProt P49759); conditions: read-out: control percentage (% control)
# T14 construct: purchased DiscoverX (scanMAX panel, contract assay)
# Experimental: as §1, §2
# EGFR(T790M) = biological target: T15, EGFR(T790M) (Homo sapiens, UniProt P00533, T790M); conditions: read-out: control percentage (% control)
# T15 construct: purchased DiscoverX scanMAX kinase assay panel
# T15 sequence (P00533 25-1210 T790M): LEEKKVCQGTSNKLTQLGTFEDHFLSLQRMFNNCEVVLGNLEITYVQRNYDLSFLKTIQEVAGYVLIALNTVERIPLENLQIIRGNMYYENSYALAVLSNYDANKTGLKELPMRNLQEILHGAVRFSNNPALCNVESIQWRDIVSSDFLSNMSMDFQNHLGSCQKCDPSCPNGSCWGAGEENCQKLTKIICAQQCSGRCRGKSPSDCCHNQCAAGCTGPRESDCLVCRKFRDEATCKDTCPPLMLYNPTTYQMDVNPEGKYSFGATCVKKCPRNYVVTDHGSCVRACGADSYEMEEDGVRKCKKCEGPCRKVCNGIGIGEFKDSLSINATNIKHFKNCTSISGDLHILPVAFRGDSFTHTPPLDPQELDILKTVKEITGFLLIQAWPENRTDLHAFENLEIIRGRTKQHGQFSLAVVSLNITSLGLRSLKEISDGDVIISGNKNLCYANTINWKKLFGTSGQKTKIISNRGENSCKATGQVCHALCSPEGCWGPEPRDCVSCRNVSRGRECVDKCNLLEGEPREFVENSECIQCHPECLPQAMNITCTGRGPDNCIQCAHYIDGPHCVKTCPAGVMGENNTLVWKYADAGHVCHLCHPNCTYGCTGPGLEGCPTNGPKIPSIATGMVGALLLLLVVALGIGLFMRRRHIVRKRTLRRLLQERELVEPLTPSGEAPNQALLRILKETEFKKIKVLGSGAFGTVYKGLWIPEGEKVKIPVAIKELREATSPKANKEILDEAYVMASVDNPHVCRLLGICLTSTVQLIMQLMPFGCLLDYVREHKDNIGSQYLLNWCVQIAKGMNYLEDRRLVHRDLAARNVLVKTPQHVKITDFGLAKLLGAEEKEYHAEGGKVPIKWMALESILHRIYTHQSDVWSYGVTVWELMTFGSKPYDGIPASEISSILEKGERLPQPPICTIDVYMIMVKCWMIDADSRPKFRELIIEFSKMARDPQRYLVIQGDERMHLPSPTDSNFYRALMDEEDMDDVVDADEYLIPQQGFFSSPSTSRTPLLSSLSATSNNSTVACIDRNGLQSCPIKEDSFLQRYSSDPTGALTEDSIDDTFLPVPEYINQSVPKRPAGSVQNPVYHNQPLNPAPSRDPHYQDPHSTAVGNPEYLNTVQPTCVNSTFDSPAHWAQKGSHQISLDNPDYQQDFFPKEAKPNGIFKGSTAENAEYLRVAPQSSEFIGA
# Experimental: as §1, §2
# EGFR(E746-A750del) = biological target: T16, EGFR(E746-A750del) (Homo sapiens, UniProt P00533, DEL746-750); conditions: read-out: control percentage (% control)
# T16 construct: purchased DiscoverX scanMAX kinase assay panel
# Experimental: as §1, §2
# MET(Y1235D) = biological target: T17, MET(Y1235D) (Homo sapiens, UniProt P08581, Y1235D); conditions: read-out: control percentage (% control)
# T17 construct: purchased DiscoverX scanMAX kinase assay panel
# Experimental: as §1, §2
# [1] = biological target: T18, JAK1(JH2domain-pseudokinase) (Homo sapiens, UniProt P23458); conditions: read-out: control percentage (% control)
# T18 construct: JAK1(JH2domain-pseudokinase); purchased DiscoverX scanMAX kinase assay panel
# T18 sequence (P23458 583-855 limits assumed): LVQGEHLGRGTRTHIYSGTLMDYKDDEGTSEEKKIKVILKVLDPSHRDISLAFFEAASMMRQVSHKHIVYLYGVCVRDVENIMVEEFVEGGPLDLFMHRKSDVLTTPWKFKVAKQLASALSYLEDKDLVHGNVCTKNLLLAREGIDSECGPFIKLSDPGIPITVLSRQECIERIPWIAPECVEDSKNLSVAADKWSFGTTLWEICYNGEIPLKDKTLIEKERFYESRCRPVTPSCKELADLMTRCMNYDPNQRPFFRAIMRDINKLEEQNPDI
# Experimental: as §1, §2
# FLT3(ITD, F691L) = conditions: 1 μM
# Experimental: as §1, §2
# PIP5K2C = biological target: T19, PIP5K2C (Homo sapiens, UniProt Q8TBX8); conditions: read-out: control percentage (% control)
# T19 construct: purchased DiscoverX scanMAX kinase assay panel
# Experimental: as §1, §2
# LTK = biological target: T20, LTK (Homo sapiens, UniProt P29376); conditions: read-out: control percentage (% control)
# T20 construct: purchased DiscoverX scanMAX kinase assay panel
# Experimental: as §1, §2
# SRPK1 = biological target: T21, SRPK1 (Homo sapiens, UniProt Q96SB4); conditions: read-out: control percentage (% control)
# T21 construct: purchased DiscoverX
# T21 sequence (Q96SB4 whole entry): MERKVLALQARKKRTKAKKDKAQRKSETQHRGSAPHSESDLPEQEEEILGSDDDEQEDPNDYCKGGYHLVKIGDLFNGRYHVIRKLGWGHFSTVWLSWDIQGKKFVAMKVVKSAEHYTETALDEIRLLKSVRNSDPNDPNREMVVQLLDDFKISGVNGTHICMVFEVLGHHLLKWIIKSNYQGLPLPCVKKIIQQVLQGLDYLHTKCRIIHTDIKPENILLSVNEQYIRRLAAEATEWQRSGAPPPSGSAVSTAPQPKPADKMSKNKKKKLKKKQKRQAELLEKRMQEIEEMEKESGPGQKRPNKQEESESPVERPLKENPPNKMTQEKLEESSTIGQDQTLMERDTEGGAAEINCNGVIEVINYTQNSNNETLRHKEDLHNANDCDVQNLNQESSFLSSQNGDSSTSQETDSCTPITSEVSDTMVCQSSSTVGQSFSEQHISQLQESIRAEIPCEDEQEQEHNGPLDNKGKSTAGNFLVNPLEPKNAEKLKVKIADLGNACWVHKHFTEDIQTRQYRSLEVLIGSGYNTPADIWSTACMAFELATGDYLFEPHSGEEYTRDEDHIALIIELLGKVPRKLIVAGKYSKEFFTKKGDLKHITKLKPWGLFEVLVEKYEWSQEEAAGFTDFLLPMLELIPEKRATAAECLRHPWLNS
# Experimental: as §1, §2
# PAK3 = biological target: T22, PAK3 (Homo sapiens, UniProt O75914); conditions: read-out: control percentage (% control)
# T22 construct: purchased DiscoverX scanMAX kinase assay panel
# Experimental: as §1, §2
# ULK3 = biological target: T23, ULK3 (Homo sapiens, UniProt Q6PHR2); conditions: read-out: control percentage (% control)
# T23 construct: purchased DiscoverX
# Experimental: as §1, §2
# [2] = biological target: T24, TYK2(JH1domain-catalytic) (Homo sapiens, UniProt P29597); conditions: read-out: control percentage (% control)
# T24 construct: TYK2(JH1domain-catalytic); purchased DiscoverX
# Experimental: as §1, §2
# RET(V804L) = biological target: T25, RET(V804L) (Homo sapiens, UniProt P07949, V804L); conditions: read-out: control percentage (% control)
# T25 construct: purchased DiscoverX scanMAX kinase assay panel
# Experimental: as §1, §2
# MLK1 = biological target: T26, MLK1 (Homo sapiens, UniProt P80192); conditions: read-out: control percentage (% control)
# T26 construct: purchased DiscoverX scanMAX kinase assay panel
# Experimental: as §1, §2
# ALK(C1156Y) = biological target: T27, ALK(C1156Y) (Homo sapiens, UniProt Q9UM73, C1156Y); conditions: read-out: control percentage (% control)
# T27 construct: purchased DiscoverX (scanMAX panel, contract assay)
# Experimental: as §1, §2
# ULK1 = biological target: T28, ULK1 (Homo sapiens, UniProt O75385); conditions: read-out: control percentage (% control)
# T28 construct: purchased DiscoverX
# T28 sequence (O75385 whole entry): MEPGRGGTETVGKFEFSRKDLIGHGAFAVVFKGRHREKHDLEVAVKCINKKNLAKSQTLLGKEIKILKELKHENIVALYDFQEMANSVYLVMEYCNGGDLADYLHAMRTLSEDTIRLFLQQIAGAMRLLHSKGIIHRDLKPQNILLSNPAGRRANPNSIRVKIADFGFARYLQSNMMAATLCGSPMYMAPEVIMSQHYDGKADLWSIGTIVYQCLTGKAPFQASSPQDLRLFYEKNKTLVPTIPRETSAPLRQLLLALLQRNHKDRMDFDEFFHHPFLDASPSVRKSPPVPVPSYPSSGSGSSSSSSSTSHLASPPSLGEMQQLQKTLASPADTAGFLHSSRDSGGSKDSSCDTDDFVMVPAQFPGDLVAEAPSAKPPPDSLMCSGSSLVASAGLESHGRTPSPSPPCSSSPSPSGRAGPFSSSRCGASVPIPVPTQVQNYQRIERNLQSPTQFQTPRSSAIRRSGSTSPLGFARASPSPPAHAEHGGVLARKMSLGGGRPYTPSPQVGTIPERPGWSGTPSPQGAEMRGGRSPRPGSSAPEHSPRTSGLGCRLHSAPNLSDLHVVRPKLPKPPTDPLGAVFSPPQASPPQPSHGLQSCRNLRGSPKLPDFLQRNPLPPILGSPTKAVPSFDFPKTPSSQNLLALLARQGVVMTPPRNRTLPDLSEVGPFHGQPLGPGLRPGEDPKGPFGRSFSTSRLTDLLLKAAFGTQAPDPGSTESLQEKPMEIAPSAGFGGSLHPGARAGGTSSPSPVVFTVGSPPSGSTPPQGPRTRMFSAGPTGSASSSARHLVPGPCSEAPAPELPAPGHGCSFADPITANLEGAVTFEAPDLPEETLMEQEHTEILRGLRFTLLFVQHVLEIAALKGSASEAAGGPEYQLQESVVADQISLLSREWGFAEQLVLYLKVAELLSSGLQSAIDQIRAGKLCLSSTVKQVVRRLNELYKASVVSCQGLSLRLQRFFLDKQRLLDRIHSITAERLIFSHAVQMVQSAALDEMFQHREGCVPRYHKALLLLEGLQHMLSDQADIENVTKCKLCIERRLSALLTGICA
# Experimental: as §1, §2
# PIK4CB = biological target: T29, PIK4CB (Homo sapiens, UniProt Q9UBF8); conditions: read-out: control percentage (% control)
# T29 construct: purchased DiscoverX scanMAX kinase assay panel
# Experimental: as §1, §2
# RET(V804M) = biological target: T30, RET(V804M) (Homo sapiens, UniProt P07949, V804M); conditions: read-out: control percentage (% control)
# T30 construct: purchased DiscoverX scanMAX kinase assay panel
# T30 sequence (P07949 29-1114 V804M): as the sequence (P07949 29-1114) above, with V776M counted along it
# Experimental: as §1, §2
# SYK = biological target: T31, SYK (Homo sapiens, UniProt P43405); conditions: read-out: control percentage (% control)
# T31 construct: purchased DiscoverX
# Experimental: as §1, §2
# TAK1 = biological target: T32, TAK1 (Homo sapiens, UniProt O43318); conditions: read-out: control percentage (% control)
# T32 construct: purchased DiscoverX
# Experimental: as §1, §2
# T1 sequence (Q16620 32-822): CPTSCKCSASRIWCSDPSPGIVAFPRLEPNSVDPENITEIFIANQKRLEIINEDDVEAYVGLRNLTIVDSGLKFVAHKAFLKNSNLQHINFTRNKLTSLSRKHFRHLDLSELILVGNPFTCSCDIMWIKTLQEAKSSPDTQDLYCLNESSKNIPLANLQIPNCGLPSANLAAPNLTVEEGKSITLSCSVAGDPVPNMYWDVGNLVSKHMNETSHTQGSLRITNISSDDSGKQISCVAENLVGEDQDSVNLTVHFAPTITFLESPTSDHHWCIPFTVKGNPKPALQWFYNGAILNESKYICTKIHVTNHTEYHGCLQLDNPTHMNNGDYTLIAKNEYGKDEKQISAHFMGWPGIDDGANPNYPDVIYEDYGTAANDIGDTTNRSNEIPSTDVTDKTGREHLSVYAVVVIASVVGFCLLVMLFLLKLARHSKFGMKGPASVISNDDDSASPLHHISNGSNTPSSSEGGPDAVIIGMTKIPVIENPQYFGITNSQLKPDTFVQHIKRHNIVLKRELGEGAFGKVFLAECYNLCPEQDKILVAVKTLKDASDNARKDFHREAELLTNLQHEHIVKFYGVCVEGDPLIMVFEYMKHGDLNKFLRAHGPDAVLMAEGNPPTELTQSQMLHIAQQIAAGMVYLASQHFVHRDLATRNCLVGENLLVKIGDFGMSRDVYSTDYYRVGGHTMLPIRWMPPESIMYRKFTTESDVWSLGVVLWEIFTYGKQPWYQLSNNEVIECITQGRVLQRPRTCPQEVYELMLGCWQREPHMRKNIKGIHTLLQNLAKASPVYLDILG
structure (smiles),measurement,setting,value
"CN1CCN(c2ccc(Nc3nc(N4OCC[C@H]4c4ccccc4)c4cc[nH]c4n3)cc2)CC1 [Example 74, (S)-N-(4-(4-methylpiperazin-1-yl)phenyl)-4-(3-phenylisoxazolidin-2-yl)-7H-pyrrolo[2,3-d]pyrimidin-2-amine]",remaining binding at 1 µM,TRKB,8.3%
same,remaining binding at 1 µM,MAP4K2,12%
same,control percentage (% control),"FLT3(ITD, D835V)",0%
same,remaining binding at 1 µM,ROCK1,11%
same,remaining binding at 1 µM,CSNK1G2,21%
same,remaining binding at 1 µM,RET,20%
same,remaining binding at 1 µM,ULK2,2.5%
same,remaining binding at 1 µM,FLT3(D835H),21%
same,remaining binding at 1 µM,INSR,19%
same,remaining binding at 1 µM,CDK4,10%
same,remaining binding at 1 µM,MEK1,16%
same,remaining binding at 1 µM,CDK7,21%
same,control percentage (% control),FLT3(ITD),0.45%
same,remaining binding at 1 µM,LRRK2(G2019S),25%
same,remaining binding at 1 µM,AXL,3.2%
same,remaining binding at 1 µM,CLK1,3.4%
same,remaining binding at 1 µM,EGFR(T790M),3.7%
same,remaining binding at 1 µM,EGFR(E746-A750del),0%
same,remaining binding at 1 µM,MET(Y1235D),7%
same,remaining binding at 1 µM,[1],1.2%
same,control percentage (% control),"FLT3(ITD, F691L)",0%
same,remaining binding at 1 µM,PIP5K2C,26%
same,remaining binding at 1 µM,LTK,27%
same,remaining binding at 1 µM,SRPK1,14%
same,remaining binding at 1 µM,PAK3,23%
same,remaining binding at 1 µM,ULK3,13%
same,remaining binding at 1 µM,[2],5.6%
same,remaining binding at 1 µM,RET(V804L),5.3%
same,remaining binding at 1 µM,MLK1,24%
same,remaining binding at 1 µM,ALK(C1156Y),15%
same,remaining binding at 1 µM,ULK1,8.1%
same,remaining binding at 1 µM,PIK4CB,16%
same,remaining binding at 1 µM,RET(V804M),3.9%
same,remaining binding at 1 µM,SYK,32%
same,remaining binding at 1 µM,TAK1,16%
